Experiments:
Format in all cases: in vivo
[1] = test system: Green Peach Aphid (Myzus persicae); experiment: B.13 Green peach aphid test on sprayed bell pepper plants; conditions: 120 h, in comparison with untreated controls, after 5 days
Excerpt: B.13 Green Peach Aphid (Myzus persicae)
The active compounds were formulated in cyclohexanone as a 10,000 ppm solution supplied in tubes. The tubes were inserted into an automated electrostatic sprayer equipped with an atomizing nozzle and they served as stock solutions for which lower dilutions were made in 50% acetone:50% water (v/v). A nonionic surfactant (Kinetic®) was included in the solution at a volume of 0.01% (v/v). Bell pepper plants at the first true-leaf stage were infested prior to treatment by placing heavily infested leaves from the main colony on top of the treatment plants. Aphids were allowed to transfer overnight to accomplish an infestation of 30-50 aphids per plant and the host leaves were removed. The infested plants were then sprayed by an automated electrostatic plant sprayer equipped with an atomizing spray nozzle. The plants were dried in the sprayer fume hood, removed, and then maintained in a growth room under fluorescent lighting in a 24-hr photoperiod at about 25° C. and about 20-40% relative humidity. Aphid mortality on the treated plants, relative to mortality on untreated control plants, was determined after 5 days.

[2] = test system: Silverleaf Whitefly (Bemisia argentifolii); experiment: B.5 Silverleaf whitefly test on sprayed cotton plants; conditions: 72 h, in comparison with untreated controls, 3 days after treatment
Procedure, shortened: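 Cotyledon-stage cotton plants were electrostatically sprayed with compound diluted from a 10,000 ppm cyclohexanone stock into 50% acetone/water with 0.01% nonionic surfactant. After drying, 10–12 adult whiteflies (3–5 days old) were released onto each plant. Mortality was scored after 3 days at 25 °C and 20–40% RH against untreated plants.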

[3] = test system: Rice brown plant hopper (Nilaparvata lugens); experiment: B.11 Rice brown plant hopper test on sprayed rice seedlings; conditions: in comparison with untreated controls, after 72 hours
Procedure, shortened: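 Compounds formulated in 50:50 acetone:water with 0.1% vol/vol surfactant and sprayed onto potted rice seedlings. Air-dried plants were caged, infested with 10 adults and held at about 28-29 °C, 50-60% RH. Percent mortality scored after 72 hours.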

[4] = test system: Boll Weevil (Anthonomus grandis); experiment: B.9 Boll weevil microtiter diet test, egg and larval mortality; conditions: 120 h, in comparison with untreated controls, egg and larval mortality after 5 days
Procedure, shortened: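 Insect diet carrying 20-30 A. grandis eggs per well was sprayed with compounds formulated in 75% water/25% DMSO, at various concentrations with two replicates. Plates were held at about 23±1° C and 50±5% RH for 5 days. Egg and larval mortality were then scored visually.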

[5] = test system: Green Peach Aphid (Myzus persicae); experiment: B.3 Green peach aphid systemic test, artificial diet under membrane; conditions: 72 h, concentration of the test solution 2500 mg/L, 3 days
Procedure, shortened: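 Systemic uptake from artificial liquid diet beneath a membrane, compound formulated in 75% water/25% DMSO and added to diet at several concentrations, two replicates. 5-8 adult aphids fed on treated diet for 3 days at about 23±1° C. and 50±5% RH. Mortality and fecundity scored visually.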

[6] = test system: Vetch Aphid (Megoura viciae); experiment: B.7 Vetch aphid test on broad bean leaf disks; conditions: foliar, 120 h, in comparison with untreated controls, 5 days
Procedure, shortened: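 Broad bean leaf disks sprayed with compounds in 25% DMSO/75% water at several concentrations, two replicates, then air-dried. Infested with 5-8 adult Megoura viciae and held 5 days at about 23±1 °C and 50±5% RH. Mortality and fecundity scored visually.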

[7] = test system: Southern Armyworm (Spodoptera eridania); experiment: B.6 Southern armyworm test on sprayed lima bean plants; conditions: 96 h, 500 ppm, in comparison with untreated controls, 4 days after treatment
Procedure, shortened: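 Lima bean plants at the 1st true leaf stage were sprayed with cyclohexanone-based solutions diluted in 50% acetone/water with 0.01% nonionic surfactant. Once dry, plants were bagged with 10–11 larvae and held at 25 °C and 20–40% RH. Mortality and reduced feeding were scored at 4 days against untreated plants.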

N#CC(C#N)(Cc1ccc(C(F)(F)F)nc1)c1cc(F)cc(F)c1 [II-34]
≥ 75%: mortality at 300 ppm [1] | mortality at 500 ppm [2] | mortality at 300 ppm [3] | mortality at 2500 ppm [4] | mortality at 2500 µg/mL [5] | mortality at 2500 ppm [6] | mortality at 500 ppm [7]

Source: US10117430B2, “Malononitrile compounds for controlling animal pests” (BASF SE, priority 2012, dated 2018)
